Experimental data: the kinase profiling compilation of Christmann-Franck et al. (2016)

Assays:
Assay in all cases: radiometric filter-binding kinase assay
PAK7 (human) = PAK7 (human) (UniProt Q9P286); conditions: compound 100.0 µM; ATP 20 µM
[1] = tested on: SGK1 (human), O00141 [S422D]; conditions: compound 100.0 µM; ATP 20 µM
RPS6KA5 KD1 KD2 (human) = RPS6KA5 KD1 KD2 (human) (UniProt O75582); conditions: compound 100.0 µM; ATP 20 µM
CHEK2 (human) = CHEK2 (human) (UniProt O96017); conditions: compound 100.0 µM; ATP 20 µM
NEK2 (human) = NEK2 (human) (UniProt P51955); conditions: compound 100.0 µM; ATP 50 µM
FLT1 (human) = FLT1 (human) (UniProt P17948); conditions: compound 100.0 µM; ATP 20 µM
CAMKK2 (human) = CAMKK2 (human) (UniProt Q96RR4); conditions: compound 100.0 µM; ATP 20 µM
BTK (human) = BTK (human) (UniProt Q06187); conditions: compound 100.0 µM; ATP 50 µM
DYRK1A (human) = DYRK1A (human) (UniProt Q13627); conditions: compound 100.0 µM; ATP 50 µM
EPHA2 (human) = EPHA2 (human) (UniProt P29317); conditions: compound 100.0 µM; ATP 50 µM
[2] = target: PRKAA1 PRKAB2 PRKAG1 (human) (UniProt O43741+Q13131+P54619); conditions: compound 100.0 µM; ATP 20 µM
MAP3K9 (human) = MAP3K9 (human) (UniProt P80192); conditions: compound 100.0 µM; ATP 20 µM
[3] = tested on: AKT2 (human), P31751 [S474D]; conditions: compound 100.0 µM; ATP 50 µM
SYK (human) = SYK (human) (UniProt P43405); conditions: compound 100.0 µM; ATP 20 µM
DYRK3 (human) = DYRK3 (human) (UniProt O43781); conditions: compound 100.0 µM; ATP 5 µM
FGFR1 (human) = FGFR1 (human) (UniProt P11362); conditions: compound 100.0 µM; ATP 20 µM
PIM2 (human) = PIM2 (human) (UniProt Q9P1W9); conditions: compound 100.0 µM; ATP 5 µM
NEK6 (human) = NEK6 (human) (UniProt Q9HC98); conditions: compound 100.0 µM; ATP 50 µM
IGF1R (human) = IGF1R (human) (UniProt P08069); conditions: compound 100.0 µM; ATP 5 µM
PRKCA (human) = PRKCA (human) (UniProt P17252); conditions: compound 100.0 µM; ATP 20 µM
PRKCG (human) = PRKCG (human) (UniProt P05129); conditions: compound 100.0 µM; ATP 20 µM
MAPK15 (human) = MAPK15 (human) (UniProt Q8TD08); conditions: compound 100.0 µM; ATP 5 µM
MST4 (human) = MST4 (human) (UniProt Q9P289); conditions: compound 100.0 µM; ATP 20 µM
PIM1 (human) = PIM1 (human) (UniProt P11309); conditions: compound 100.0 µM; ATP 20 µM
YES1 (human) = YES1 (human) (UniProt P07947); conditions: compound 100.0 µM; ATP 20 µM
PAK6 (human) = PAK6 (human) (UniProt Q9NQU5); conditions: compound 100.0 µM; ATP 20 µM
MAPK11 (human) = MAPK11 (human) (UniProt Q15759); conditions: compound 100.0 µM; ATP 20 µM
PKN2 (human) = PKN2 (human) (UniProt Q16513); conditions: compound 100.0 µM; ATP 5 µM
DYRK2 (human) = DYRK2 (human) (UniProt Q92630); conditions: compound 100.0 µM; ATP 50 µM
MELK (human) = MELK (human) (UniProt Q14680); conditions: compound 100.0 µM; ATP 50 µM
MAP3K1 (human) = MAP3K1 (human) (UniProt Q13233); conditions: compound 100.0 µM; ATP 50 µM
[4] = target: STK11 CAB39 STRADA (human) (UniProt Q9Y376+Q7RTN6+Q15831); conditions: compound 100.0 µM; ATP 20 µM
MYLK (human) = MYLK (human) (UniProt Q15746); conditions: compound 100.0 µM; ATP 50 µM
MINK1 (human) = MINK1 (human) (UniProt Q8N4C8); conditions: compound 100.0 µM; ATP 50 µM
STK3 (human) = STK3 (human) (UniProt Q13188); conditions: compound 100.0 µM; ATP 20 µM
MAPKAPK3 (human) = MAPKAPK3 (human) (UniProt Q16644); conditions: compound 100.0 µM; ATP 20 µM
SRPK1 (human) = SRPK1 (human) (UniProt Q96SB4); conditions: compound 100.0 µM; ATP 50 µM
MAPKAPK2 (human) = MAPKAPK2 (human) (UniProt P49137); conditions: compound 100.0 µM; ATP 20 µM
PHKG1 (human) = PHKG1 (human) (UniProt Q16816); conditions: compound 100.0 µM; ATP 50 µM

MAPK15 (human), sequence (Q8TD08 whole entry, looked up): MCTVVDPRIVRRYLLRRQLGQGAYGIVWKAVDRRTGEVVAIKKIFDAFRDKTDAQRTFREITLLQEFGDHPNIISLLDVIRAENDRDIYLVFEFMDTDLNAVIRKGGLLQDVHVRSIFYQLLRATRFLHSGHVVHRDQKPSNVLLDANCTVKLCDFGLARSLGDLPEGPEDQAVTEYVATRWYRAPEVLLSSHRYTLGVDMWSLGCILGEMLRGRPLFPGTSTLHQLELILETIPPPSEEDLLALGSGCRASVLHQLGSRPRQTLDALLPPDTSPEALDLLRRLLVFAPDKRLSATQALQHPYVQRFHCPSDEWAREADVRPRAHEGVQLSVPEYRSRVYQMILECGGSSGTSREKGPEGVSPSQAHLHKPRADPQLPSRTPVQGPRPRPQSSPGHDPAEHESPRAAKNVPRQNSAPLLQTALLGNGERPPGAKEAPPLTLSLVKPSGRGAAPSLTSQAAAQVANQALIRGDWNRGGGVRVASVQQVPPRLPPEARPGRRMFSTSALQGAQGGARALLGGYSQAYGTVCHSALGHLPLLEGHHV
MAPK11 (human), sequence (Q15759 whole entry, looked up): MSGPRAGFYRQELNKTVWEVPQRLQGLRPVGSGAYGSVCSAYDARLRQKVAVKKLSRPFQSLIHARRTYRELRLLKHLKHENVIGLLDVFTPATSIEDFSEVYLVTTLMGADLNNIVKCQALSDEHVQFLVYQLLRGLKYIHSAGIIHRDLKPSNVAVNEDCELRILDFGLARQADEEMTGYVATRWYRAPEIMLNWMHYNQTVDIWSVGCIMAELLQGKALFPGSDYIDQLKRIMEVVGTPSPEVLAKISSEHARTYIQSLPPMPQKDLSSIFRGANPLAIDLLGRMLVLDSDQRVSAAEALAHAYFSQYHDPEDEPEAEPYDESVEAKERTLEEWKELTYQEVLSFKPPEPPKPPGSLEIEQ
MELK (human), sequence (Q14680 whole entry, looked up): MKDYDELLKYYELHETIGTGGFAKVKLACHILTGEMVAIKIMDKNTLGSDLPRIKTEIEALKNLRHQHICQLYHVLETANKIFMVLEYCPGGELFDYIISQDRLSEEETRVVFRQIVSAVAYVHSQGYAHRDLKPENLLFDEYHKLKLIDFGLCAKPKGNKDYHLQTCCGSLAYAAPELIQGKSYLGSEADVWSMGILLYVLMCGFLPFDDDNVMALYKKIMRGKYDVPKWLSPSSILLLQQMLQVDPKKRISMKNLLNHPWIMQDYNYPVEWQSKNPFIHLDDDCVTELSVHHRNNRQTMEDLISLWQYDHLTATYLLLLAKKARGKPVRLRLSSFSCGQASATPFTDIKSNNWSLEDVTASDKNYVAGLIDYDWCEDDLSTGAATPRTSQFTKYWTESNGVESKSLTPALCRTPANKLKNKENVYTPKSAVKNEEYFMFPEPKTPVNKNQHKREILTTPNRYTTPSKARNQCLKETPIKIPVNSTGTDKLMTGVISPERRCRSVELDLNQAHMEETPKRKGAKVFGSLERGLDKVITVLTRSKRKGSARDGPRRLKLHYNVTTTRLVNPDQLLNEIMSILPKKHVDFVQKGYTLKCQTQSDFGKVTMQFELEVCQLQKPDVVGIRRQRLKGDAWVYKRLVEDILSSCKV
RPS6KA5 KD1 KD2 (human), sequence (O75582 whole entry, looked up): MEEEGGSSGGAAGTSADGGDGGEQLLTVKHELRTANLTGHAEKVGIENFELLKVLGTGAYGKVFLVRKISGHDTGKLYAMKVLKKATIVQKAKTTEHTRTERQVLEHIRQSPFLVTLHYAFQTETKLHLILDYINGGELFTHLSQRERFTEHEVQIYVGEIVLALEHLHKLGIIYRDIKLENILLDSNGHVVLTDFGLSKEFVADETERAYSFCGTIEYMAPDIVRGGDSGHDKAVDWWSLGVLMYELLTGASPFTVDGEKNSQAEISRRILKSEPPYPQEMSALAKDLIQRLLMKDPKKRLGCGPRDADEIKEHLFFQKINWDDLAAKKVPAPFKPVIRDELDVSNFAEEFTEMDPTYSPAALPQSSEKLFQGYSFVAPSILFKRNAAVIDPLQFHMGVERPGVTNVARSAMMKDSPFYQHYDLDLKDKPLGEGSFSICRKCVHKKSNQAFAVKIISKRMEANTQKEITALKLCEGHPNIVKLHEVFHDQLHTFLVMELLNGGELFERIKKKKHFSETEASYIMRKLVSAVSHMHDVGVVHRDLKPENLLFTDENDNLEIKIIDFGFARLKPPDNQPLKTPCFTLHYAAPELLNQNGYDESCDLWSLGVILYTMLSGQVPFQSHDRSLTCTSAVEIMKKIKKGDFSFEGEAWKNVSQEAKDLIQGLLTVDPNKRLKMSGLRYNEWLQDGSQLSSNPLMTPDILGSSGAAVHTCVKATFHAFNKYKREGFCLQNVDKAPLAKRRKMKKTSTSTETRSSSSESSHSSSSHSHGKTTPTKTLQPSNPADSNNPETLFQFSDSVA
PAK7 (human), sequence (Q9P286 whole entry, looked up): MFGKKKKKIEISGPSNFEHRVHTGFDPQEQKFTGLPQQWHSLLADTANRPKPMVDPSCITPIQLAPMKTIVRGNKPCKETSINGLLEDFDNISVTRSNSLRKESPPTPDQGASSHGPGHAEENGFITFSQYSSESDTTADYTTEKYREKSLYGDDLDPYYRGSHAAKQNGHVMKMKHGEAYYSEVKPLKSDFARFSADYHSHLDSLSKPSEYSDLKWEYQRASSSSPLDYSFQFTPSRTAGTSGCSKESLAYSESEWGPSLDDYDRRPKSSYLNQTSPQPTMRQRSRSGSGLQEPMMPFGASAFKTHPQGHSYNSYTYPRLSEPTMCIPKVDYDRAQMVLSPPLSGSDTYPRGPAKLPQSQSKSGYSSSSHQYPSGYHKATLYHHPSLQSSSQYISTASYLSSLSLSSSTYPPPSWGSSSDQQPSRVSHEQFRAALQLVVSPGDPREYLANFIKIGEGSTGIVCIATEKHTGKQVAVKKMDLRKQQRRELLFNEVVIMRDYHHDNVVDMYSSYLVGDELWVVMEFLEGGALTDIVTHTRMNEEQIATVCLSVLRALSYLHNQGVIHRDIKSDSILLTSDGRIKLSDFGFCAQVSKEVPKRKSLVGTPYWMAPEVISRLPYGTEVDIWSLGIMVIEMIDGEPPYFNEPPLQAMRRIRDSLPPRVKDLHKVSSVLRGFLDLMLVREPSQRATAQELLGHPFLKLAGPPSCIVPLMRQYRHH
STK3 (human), sequence (Q13188 whole entry, looked up): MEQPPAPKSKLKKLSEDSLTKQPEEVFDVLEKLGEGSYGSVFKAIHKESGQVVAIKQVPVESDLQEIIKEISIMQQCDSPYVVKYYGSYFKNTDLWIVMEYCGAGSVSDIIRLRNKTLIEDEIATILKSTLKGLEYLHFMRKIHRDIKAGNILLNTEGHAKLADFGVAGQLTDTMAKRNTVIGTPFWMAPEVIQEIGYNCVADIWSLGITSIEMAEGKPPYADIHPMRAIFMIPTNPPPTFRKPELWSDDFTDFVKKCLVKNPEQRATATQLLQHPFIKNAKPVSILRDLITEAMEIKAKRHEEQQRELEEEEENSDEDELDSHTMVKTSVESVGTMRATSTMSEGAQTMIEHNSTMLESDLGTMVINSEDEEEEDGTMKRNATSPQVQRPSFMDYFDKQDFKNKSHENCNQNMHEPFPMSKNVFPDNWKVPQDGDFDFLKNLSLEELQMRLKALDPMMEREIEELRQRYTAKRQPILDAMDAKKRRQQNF
CAMKK2 (human), sequence (Q96RR4 whole entry, looked up): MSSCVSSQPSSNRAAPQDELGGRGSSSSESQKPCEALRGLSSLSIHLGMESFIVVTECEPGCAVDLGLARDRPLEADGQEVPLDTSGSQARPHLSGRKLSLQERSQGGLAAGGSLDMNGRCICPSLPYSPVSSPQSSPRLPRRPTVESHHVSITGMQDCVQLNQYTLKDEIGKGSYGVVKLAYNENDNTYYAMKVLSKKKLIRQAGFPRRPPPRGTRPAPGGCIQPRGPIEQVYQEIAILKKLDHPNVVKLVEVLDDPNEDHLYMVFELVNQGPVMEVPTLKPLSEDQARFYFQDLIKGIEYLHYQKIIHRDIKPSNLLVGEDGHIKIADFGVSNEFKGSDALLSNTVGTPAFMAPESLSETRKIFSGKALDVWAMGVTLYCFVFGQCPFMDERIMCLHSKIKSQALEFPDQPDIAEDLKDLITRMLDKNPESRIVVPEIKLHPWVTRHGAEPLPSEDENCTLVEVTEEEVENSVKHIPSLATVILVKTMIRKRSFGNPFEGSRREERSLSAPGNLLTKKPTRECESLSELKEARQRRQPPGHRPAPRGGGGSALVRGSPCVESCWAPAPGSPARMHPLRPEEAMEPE

Row | Compound | inhibition (PAK7 (human)) | inhibition [1] | inhibition (RPS6KA5 KD1 KD2 (human)) | inhibition (CHEK2 (human)) | inhibition (NEK2 (human)) | inhibition (FLT1 (human)) | inhibition (CAMKK2 (human)) | inhibition (BTK (human)) | inhibition (DYRK1A (human)) | inhibition (EPHA2 (human)) | inhibition [2] | inhibition (MAP3K9 (human)) | inhibition [3] | inhibition (SYK (human)) | inhibition (DYRK3 (human)) | inhibition (FGFR1 (human)) | inhibition (PIM2 (human)) | inhibition (NEK6 (human)) | inhibition (IGF1R (human)) | inhibition (PRKCA (human)) | also measured
1 | CC(=O)Nc1nc2cnc(-c3c(C)cccc3C)cn2n1 | 5% | 0% | 0% | 0% | 0% | 9% | 18% | 0% | 0% | 0% | 0% | 0% | 43% | 10% | 12% | 3% | 5% | 0% | 0% | 0% | inhibition (PRKCG (human)): 12%; inhibition (MAPK15 (human)): 7%; inhibition (MST4 (human)): 0%; inhibition (PIM1 (human)): 9%; inhibition (YES1 (human)): 17%; inhibition (PAK6 (human)): 0%; inhibition (MAPK11 (human)): 0%; inhibition (PKN2 (human)): 0%; inhibition (DYRK2 (human)): 0%; inhibition (MELK (human)): 0%; inhibition (MAP3K1 (human)): 0%; inhibition [4]: 0%; inhibition (MYLK (human)): 0%; inhibition (MINK1 (human)): 0%; inhibition (STK3 (human)): 0%; inhibition (MAPKAPK3 (human)): 74%; inhibition (SRPK1 (human)): 10%; inhibition (MAPKAPK2 (human)): 0%; inhibition (PHKG1 (human)): 0%
2 | Cc1cccc(C)c1-c1cn2nc(N)nc2cn1 | 13% | 19% | 6% | 13% | 38% | 22% | 21% | 44% | 19% | 11% | 12% | 18% | 37% | 26% | 30% | 42% | 2% | 3% | 5% | 9% | inhibition (PRKCG (human)): 6%; inhibition (MAPK15 (human)): 25%; inhibition (MST4 (human)): 21%; inhibition (PIM1 (human)): 18%; inhibition (YES1 (human)): 42%; inhibition (PAK6 (human)): 11%; inhibition (MAPK11 (human)): 20%; inhibition (PKN2 (human)): 93%; inhibition (DYRK2 (human)): 21%; inhibition (MELK (human)): 8%; inhibition (MAP3K1 (human)): 17%; inhibition [4]: 0%; inhibition (MYLK (human)): 12%; inhibition (MINK1 (human)): 45%; inhibition (STK3 (human)): 9%; inhibition (MAPKAPK3 (human)): 33%; inhibition (SRPK1 (human)): 31%; inhibition (MAPKAPK2 (human)): 14%; inhibition (PHKG1 (human)): 41%
3 | CC1CN(c2nc3ccccn3c(=O)c2N)CC(C)O1 (stereo not given) | 0% | 0% | 0% | 0% | 0% | 54% | 0% | 1% | 36% | 0% | 2% | 0% | 24% | 13% | 49% | 34% | 19% | 0% | 0% | 15% | inhibition (PRKCG (human)): 0%; inhibition (MAPK15 (human)): 0%; inhibition (MST4 (human)): 2%; inhibition (PIM1 (human)): 7%; inhibition (YES1 (human)): 57%; inhibition (PAK6 (human)): 4%; inhibition (MAPK11 (human)): 0%; inhibition (PKN2 (human)): 0%; inhibition (DYRK2 (human)): 40%; inhibition (MELK (human)): 7%; inhibition (MAP3K1 (human)): 0%; inhibition [4]: 0%; inhibition (MYLK (human)): 0%; inhibition (MINK1 (human)): 2%; inhibition (STK3 (human)): 0%; inhibition (MAPKAPK3 (human)): 70%; inhibition (SRPK1 (human)): 74%; inhibition (MAPKAPK2 (human)): 0%; inhibition (PHKG1 (human)): 3%

Second part, led by results:

Row | inhibition (PAK7 (human)) | inhibition [1] | inhibition (RPS6KA5 KD1 KD2 (human)) | inhibition (CHEK2 (human)) | inhibition (NEK2 (human)) | inhibition (FLT1 (human)) | inhibition (CAMKK2 (human)) | inhibition (BTK (human)) | inhibition (DYRK1A (human)) | inhibition (EPHA2 (human)) | inhibition [2] | inhibition (MAP3K9 (human)) | inhibition [3] | inhibition (SYK (human)) | inhibition (DYRK3 (human)) | inhibition (FGFR1 (human)) | inhibition (PIM2 (human)) | inhibition (NEK6 (human)) | inhibition (IGF1R (human)) | inhibition (PRKCA (human)) | Compound | also measured
4 | 20% | 16% | 11% | 25% | 25% | 69% | 41% | 28% | 43% | 0% | 14% | 43% | 22% | 31% | 69% | 45% | 11% | 21% | 11% | 0% | CC(=O)Nc1nc2cnc(-c3ccccc3)cn2n1 | inhibition (PRKCG (human)): 2%; inhibition (MAPK15 (human)): 88%; inhibition (MST4 (human)): 16%; inhibition (PIM1 (human)): 13%; inhibition (YES1 (human)): 35%; inhibition (PAK6 (human)): 18%; inhibition (MAPK11 (human)): 22%; inhibition (PKN2 (human)): 13%; inhibition (DYRK2 (human)): 30%; inhibition (MELK (human)): 17%; inhibition (MAP3K1 (human)): 9%; inhibition [4]: 0%; inhibition (MYLK (human)): 0%; inhibition (MINK1 (human)): 58%; inhibition (STK3 (human)): 0%; inhibition (MAPKAPK3 (human)): 2%; inhibition (SRPK1 (human)): 25%; inhibition (MAPKAPK2 (human)): 7%; inhibition (PHKG1 (human)): 68%
5 | 79% | 34% | 19% | 81% | 77% | 82% | 54% | 67% | 77% | 28% | 7% | 81% | 32% | 84% | 76% | 79% | 16% | 1% | 91% | 2% | Nc1nc2cnc(-c3ccccc3)cn2n1 | inhibition (PRKCG (human)): 24%; inhibition (MAPK15 (human)): 74%; inhibition (MST4 (human)): 41%; inhibition (PIM1 (human)): 30%; inhibition (YES1 (human)): 89%; inhibition (PAK6 (human)): 36%; inhibition (MAPK11 (human)): 34%; inhibition (PKN2 (human)): 44%; inhibition (DYRK2 (human)): 63%; inhibition (MELK (human)): 13%; inhibition (MAP3K1 (human)): 34%; inhibition [4]: 2%; inhibition (MYLK (human)): 19%; inhibition (MINK1 (human)): 68%; inhibition (STK3 (human)): 6%; inhibition (MAPKAPK3 (human)): 40%; inhibition (SRPK1 (human)): 41%; inhibition (MAPKAPK2 (human)): 56%; inhibition (PHKG1 (human)): 83%
